Key:
[1] = molecular target: Cyclin-dependent kinase 14 (Homo sapiens) (UniProt O94921); assay: Inhibition of human PFTAIRE1 in HL-60 cells lysate assessed as reduction of labeling of acyl-phosphate ATP probe at 100 nM; format: cell-free
[2] = molecular target: Phosphatidylinositol 3-kinase catalytic subunit type 3 (Homo sapiens) (UniProt Q8NEB9); assay: Inhibition of human PIK3C3 in HL-60 cells lysate assessed as reduction of labeling of acyl-phosphate ATP probe at 100 nM; format: cell-free
[3] = molecular target: T1, Aurora kinase A (Homo sapiens) (UniProt O14965); assay: Inhibition of human AurA in HL-60 cells lysate assessed as reduction of labeling of acyl-phosphate ATP probe at 100 nM; format: cell-free
T1 sequence (whole entry): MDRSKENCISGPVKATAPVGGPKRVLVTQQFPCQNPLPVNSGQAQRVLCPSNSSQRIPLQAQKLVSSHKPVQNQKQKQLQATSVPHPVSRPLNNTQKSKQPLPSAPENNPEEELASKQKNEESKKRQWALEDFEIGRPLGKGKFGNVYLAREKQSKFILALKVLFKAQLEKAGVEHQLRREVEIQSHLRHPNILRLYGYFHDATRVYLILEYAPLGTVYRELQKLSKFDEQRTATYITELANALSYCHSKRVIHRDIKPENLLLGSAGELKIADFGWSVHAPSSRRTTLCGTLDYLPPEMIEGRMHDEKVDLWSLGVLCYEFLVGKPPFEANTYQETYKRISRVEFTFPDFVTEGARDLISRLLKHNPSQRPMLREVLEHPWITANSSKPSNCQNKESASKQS

[4] = molecular target: Serine/threonine-protein kinase 10 (Homo sapiens) (UniProt O94804); assay: Inhibition of human LOK in HL-60 cells lysate assessed as reduction of labeling of acyl-phosphate ATP probe at 100 nM; format: cell-free
Sequence of Serine/threonine-protein kinase 10 (Homo sapiens) (O94804 whole entry, looked up): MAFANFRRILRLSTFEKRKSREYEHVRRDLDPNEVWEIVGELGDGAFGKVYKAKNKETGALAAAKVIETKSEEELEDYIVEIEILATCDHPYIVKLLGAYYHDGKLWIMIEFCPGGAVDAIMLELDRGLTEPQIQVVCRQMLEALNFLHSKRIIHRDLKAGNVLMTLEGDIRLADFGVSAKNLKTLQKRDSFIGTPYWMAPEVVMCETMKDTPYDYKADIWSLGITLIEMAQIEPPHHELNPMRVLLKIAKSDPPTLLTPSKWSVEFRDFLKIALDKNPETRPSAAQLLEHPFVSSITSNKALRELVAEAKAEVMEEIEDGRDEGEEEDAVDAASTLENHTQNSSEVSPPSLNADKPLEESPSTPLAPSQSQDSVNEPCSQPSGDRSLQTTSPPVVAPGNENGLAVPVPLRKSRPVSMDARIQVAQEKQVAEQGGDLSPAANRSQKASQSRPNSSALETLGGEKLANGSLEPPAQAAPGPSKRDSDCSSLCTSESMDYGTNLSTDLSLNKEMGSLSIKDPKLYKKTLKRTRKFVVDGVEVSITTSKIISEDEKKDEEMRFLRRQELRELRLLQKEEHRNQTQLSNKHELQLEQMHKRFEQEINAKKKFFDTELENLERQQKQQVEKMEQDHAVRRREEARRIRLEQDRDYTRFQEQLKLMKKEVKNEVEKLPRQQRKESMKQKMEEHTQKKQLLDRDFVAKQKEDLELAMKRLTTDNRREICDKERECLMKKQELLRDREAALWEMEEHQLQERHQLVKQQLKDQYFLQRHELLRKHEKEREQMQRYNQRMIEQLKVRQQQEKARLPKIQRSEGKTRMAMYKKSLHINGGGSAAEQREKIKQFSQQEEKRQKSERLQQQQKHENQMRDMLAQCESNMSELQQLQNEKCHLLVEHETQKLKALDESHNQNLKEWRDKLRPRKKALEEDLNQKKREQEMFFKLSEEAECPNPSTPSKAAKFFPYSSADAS

[5] = molecular target: Dual specificity mitogen-activated protein kinase kinase 1 (Homo sapiens) (UniProt Q02750); assay: Inhibition of human MAP2K1 in HL-60 cells lysate assessed as reduction of labeling of acyl-phosphate ATP probe at 100 nM; format: cell-free
Sequence of Dual specificity mitogen-activated protein kinase kinase 1 (Homo sapiens) (Q02750 whole entry): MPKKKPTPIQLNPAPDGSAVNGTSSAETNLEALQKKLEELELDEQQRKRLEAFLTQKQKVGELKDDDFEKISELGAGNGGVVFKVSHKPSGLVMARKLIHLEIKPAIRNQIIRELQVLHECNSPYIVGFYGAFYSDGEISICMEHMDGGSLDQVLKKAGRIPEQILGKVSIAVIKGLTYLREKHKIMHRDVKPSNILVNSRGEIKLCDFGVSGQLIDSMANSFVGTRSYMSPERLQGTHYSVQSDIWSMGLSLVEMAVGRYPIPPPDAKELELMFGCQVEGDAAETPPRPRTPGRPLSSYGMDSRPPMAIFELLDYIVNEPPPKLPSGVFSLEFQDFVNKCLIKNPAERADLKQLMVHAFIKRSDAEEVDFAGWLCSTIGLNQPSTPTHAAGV

[6] = molecular target: T2, Dual specificity mitogen-activated protein kinase kinase 7 (Homo sapiens) (UniProt O14733); assay: Inhibition of human MAP2K7 in HL-60 cells lysate assessed as reduction of labeling of acyl-phosphate ATP probe at 100 nM; format: cell-free
T2 sequence (whole entry): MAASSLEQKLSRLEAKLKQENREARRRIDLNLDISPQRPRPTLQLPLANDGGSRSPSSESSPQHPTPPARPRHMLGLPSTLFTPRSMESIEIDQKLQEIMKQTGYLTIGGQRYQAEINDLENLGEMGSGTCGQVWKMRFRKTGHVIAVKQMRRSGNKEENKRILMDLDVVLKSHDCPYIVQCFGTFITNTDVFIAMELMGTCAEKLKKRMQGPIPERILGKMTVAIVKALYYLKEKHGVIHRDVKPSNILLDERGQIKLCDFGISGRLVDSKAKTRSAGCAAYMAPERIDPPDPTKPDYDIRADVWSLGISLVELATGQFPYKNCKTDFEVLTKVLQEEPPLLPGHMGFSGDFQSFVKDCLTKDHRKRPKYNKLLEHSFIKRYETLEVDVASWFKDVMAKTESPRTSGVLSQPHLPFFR

[7] = molecular target: Mitogen-activated protein kinase kinase kinase kinase 4 (Homo sapiens) (UniProt O95819); assay: Inhibition of human ZC1/HGK in HL-60 cells lysate assessed as reduction of labeling of acyl-phosphate ATP probe at 100 nM; format: cell-free
[8] = molecular target: Misshapen-like kinase 1 (Homo sapiens) (UniProt Q8N4C8); assay: Inhibition of human ZC3/MINK in HL-60 cells lysate assessed as reduction of labeling of acyl-phosphate ATP probe at 100 nM; format: cell-free
[9] = test system: HL-60; assay: Inhibition of human ACK in HL-60 cells lysate assessed as reduction of labeling of acyl-phosphate ATP probe at 100 nM
[10] = molecular target: Tyrosine-protein kinase JAK1 (Homo sapiens) (UniProt P23458); assay: Inhibition of human JAK1 domain1 in HL-60 cells lysate assessed as reduction of labeling of acyl-phosphate ATP probe at 100 nM; format: cell-free
[11] = molecular target: T3, Interleukin-1 receptor-associated kinase 3 (Homo sapiens) (UniProt Q9Y616); assay: Inhibition of human IRAK3 in HL-60 cells lysate assessed as reduction of labeling of acyl-phosphate ATP probe at 100 nM; format: cell-free
T3 sequence (whole entry): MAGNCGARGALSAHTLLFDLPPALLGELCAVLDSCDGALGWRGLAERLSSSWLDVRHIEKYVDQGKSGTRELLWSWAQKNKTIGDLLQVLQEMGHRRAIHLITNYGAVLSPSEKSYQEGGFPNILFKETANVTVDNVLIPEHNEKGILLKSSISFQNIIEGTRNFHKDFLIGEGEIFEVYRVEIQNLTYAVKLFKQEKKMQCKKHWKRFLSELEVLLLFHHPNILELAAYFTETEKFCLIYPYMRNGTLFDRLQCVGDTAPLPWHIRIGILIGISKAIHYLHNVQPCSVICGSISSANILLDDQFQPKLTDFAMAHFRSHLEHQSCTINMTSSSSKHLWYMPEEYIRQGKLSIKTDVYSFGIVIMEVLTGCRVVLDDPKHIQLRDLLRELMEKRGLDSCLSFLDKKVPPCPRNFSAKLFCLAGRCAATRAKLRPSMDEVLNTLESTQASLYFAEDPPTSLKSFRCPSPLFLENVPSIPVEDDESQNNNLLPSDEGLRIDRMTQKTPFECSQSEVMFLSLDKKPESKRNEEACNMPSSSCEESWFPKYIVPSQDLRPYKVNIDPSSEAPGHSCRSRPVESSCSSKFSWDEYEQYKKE

[12] = test system: HL-60; assay: Inhibition of human CDK11/CDK8 in HL-60 cells lysate assessed as reduction of labeling of acyl-phosphate ATP probe at 100 nM
[13] = molecular target: Cyclin-dependent kinase 13 (Homo sapiens) (UniProt Q14004); assay: Inhibition of human CHED in HL-60 cells lysate assessed as reduction of labeling of acyl-phosphate ATP probe at 100 nM; format: cell-free
Sequence of Cyclin-dependent kinase 13 (Homo sapiens) (Q14004 whole entry, looked up): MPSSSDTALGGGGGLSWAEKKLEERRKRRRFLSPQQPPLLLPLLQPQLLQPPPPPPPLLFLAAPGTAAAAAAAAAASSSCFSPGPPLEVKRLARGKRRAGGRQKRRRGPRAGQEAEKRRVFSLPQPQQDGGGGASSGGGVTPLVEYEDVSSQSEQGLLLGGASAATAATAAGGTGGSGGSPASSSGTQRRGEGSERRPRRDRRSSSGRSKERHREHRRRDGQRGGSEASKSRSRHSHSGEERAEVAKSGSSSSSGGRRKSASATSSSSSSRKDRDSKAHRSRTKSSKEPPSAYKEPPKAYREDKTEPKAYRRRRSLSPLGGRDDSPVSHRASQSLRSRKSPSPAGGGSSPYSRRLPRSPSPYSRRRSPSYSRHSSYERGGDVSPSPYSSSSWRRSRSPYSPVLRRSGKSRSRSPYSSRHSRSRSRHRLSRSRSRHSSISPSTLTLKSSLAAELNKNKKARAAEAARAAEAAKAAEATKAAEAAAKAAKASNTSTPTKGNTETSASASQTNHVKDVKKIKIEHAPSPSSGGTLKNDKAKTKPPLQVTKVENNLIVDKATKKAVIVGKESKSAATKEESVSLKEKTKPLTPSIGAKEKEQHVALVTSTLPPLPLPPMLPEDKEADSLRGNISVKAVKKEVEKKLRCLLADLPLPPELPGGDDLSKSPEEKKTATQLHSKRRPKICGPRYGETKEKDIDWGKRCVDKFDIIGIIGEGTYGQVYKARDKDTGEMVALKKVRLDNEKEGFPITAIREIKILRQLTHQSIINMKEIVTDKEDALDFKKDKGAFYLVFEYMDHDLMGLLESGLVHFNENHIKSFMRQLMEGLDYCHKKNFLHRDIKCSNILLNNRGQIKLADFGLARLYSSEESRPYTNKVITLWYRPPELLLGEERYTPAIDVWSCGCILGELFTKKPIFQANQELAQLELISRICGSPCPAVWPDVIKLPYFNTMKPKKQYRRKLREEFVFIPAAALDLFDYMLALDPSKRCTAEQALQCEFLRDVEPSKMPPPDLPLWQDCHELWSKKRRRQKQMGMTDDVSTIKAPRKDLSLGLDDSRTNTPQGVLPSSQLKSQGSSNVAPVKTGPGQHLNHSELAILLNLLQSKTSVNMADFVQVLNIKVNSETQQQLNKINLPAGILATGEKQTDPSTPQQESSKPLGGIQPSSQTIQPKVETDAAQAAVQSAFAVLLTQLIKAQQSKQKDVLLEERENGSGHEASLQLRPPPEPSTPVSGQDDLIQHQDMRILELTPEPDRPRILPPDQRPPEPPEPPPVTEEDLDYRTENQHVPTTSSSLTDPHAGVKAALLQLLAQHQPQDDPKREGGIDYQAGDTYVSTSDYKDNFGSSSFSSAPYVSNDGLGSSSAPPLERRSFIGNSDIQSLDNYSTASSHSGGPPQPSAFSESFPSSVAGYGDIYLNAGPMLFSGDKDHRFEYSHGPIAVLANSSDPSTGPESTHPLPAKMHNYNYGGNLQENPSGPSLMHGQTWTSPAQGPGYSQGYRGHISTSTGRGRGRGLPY

[14] = molecular target: Cyclin-dependent kinase 17 (Homo sapiens) (UniProt Q00537); assay: Inhibition of human PCTAIRE2 in HL-60 cells lysate assessed as reduction of labeling of acyl-phosphate ATP probe at 100 nM; format: cell-free
Sequence of Cyclin-dependent kinase 17 (Homo sapiens) (Q00537 whole entry, looked up): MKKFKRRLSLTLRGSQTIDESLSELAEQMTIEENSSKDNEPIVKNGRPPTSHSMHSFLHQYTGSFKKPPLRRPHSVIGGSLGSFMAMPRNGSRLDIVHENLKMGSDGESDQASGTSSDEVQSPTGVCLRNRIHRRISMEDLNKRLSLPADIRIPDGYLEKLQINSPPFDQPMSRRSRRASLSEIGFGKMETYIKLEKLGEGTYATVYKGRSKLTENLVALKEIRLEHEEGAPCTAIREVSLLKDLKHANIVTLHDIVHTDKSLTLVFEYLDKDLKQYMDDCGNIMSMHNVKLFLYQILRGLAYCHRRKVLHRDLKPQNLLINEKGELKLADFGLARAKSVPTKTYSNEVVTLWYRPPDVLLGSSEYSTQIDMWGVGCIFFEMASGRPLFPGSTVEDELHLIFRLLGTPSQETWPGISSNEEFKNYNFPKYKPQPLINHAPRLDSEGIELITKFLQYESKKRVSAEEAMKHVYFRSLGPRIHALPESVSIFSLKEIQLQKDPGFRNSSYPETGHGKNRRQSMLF

Sequence of Phosphatidylinositol 3-kinase catalytic subunit type 3 (Homo sapiens) (Q8NEB9 whole entry): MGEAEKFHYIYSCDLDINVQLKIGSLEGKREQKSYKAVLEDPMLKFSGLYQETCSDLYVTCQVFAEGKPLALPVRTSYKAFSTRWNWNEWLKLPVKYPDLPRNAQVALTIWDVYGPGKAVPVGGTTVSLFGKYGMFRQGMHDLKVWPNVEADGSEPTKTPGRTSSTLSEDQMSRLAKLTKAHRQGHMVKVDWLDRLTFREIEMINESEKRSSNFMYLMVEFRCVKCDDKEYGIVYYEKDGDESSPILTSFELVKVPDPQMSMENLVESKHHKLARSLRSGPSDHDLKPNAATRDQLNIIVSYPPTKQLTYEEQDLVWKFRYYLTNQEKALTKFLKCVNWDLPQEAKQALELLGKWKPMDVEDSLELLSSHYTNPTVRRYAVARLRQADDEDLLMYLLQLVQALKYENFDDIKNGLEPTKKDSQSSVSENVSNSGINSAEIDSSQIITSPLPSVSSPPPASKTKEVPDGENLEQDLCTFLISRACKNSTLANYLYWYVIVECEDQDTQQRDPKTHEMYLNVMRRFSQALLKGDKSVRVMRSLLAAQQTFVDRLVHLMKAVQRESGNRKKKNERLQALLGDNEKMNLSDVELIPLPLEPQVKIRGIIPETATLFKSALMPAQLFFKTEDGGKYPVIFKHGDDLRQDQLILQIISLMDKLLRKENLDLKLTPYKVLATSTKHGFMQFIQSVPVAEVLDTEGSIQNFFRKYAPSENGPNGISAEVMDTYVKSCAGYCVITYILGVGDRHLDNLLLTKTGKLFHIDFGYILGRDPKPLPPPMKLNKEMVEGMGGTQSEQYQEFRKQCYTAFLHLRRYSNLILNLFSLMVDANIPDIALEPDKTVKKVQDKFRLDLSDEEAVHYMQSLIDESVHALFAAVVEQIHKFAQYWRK
Sequence of Cyclin-dependent kinase 14 (Homo sapiens) (O94921 whole entry): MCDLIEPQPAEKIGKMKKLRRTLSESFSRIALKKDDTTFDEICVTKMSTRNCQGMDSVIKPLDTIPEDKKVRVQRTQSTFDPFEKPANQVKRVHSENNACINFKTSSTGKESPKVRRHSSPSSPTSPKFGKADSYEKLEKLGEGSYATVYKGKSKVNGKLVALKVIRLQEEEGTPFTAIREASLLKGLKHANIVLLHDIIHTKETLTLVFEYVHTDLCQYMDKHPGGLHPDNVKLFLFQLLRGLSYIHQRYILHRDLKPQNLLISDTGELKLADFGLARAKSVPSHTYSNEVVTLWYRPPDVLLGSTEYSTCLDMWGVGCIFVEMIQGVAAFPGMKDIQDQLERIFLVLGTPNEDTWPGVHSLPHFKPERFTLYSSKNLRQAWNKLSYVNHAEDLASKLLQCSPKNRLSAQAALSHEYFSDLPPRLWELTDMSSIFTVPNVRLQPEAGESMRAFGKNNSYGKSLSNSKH

C[C@H]1COc2c(NCCCc3ccccn3)c(F)c(N)c3c(=O)c(C#N)cn1c23
< 35%: inhibition [1] | inhibition [2] | inhibition [3] | inhibition [4] | inhibition [5] | inhibition [6] | inhibition [7] | inhibition [8] | inhibition at 0.1 µM [9] | inhibition [10] | inhibition [11] | inhibition at 0.1 µM [12] | inhibition [13] | inhibition [14]

C[C@H]1COc2c(NCCCc3ccccn3)c(F)c(N)c3c(=O)c(C(=O)O)cn1c23
< 35%: inhibition [1] | inhibition [2] | inhibition [3] | inhibition [4] | inhibition [5] | inhibition [6] | inhibition [7] | inhibition [8] | inhibition at 0.1 µM [9] | inhibition [10] | inhibition [11] | inhibition at 0.1 µM [12] | inhibition [13] | inhibition [14]

C[C@H]1COc2c(NCCCn3cccn3)c(F)c(N)c3c(=O)c(C(=O)O)cn1c23
< 35%: inhibition [1] | inhibition [2] | inhibition [3] | inhibition [4] | inhibition [5] | inhibition [6] | inhibition [7] | inhibition [8] | inhibition at 0.1 µM [9] | inhibition [10] | inhibition [11] | inhibition at 0.1 µM [12] | inhibition [13] | inhibition [14]

C[C@H]1COc2c(NCCCn3cccn3)c(F)c(N)c3c(=O)c(C#N)cn1c23
< 35%: inhibition [1] | inhibition [2] | inhibition [3] | inhibition [4] | inhibition [5] | inhibition [6] | inhibition [7] | inhibition [8] | inhibition at 0.1 µM [9] | inhibition [10] | inhibition [11] | inhibition at 0.1 µM [12] | inhibition [13] | inhibition [14]

Source: ChEMBL document CHEMBL1938230, “6-Position optimization of tricyclic 4-quinolone-based inhibitors of glycogen synthase kinase-3β: discovery of nitrile derivatives with picomolar potency” (Bioorg Med Chem Lett, 2012)
